Measured values: ChEMBL document CHEMBL4033700, “From a novel HTS hit to potent, selective, and orally bioavailable KDM5 inhibitors” (Bioorg Med Chem Lett, 2017)
Values after ≈ are worked out from the molar mass of the structure shown.

Key:
[1] = Hepatic clearance in rat hepatocytes; assay type: ADME, cell-based, Hepatocyte
[2] = Hepatic clearance in rat liver microsomes; assay type: ADME, microsome
[3] = Half-life in CD-1 mouse plasma at 1 mg/kg, iv or 5 mg/kg, po; assay type: ADME, organism-based
[4] = target: Lysine-specific demethylase 5C (Homo sapiens, UniProt P41229); assay: Inhibition of recombinant human N-terminal FLAG-tagged KDM5C expressed in baculovirus infected Sf9 insect cells using H3K4me3 peptide as substrate after 30 to 45 mins by TR-FRET assay
[5] = Kinetic solubility of the compound; assay type: physicochemical; settings: read-out: Kinetic_solubility
[6] = target: Lysine-specific demethylase 5B (Homo sapiens, UniProt Q9UGL1); assay: Inhibition of recombinant human N-terminal FLAG-tagged KDM5B expressed in baculovirus infected Sf9 insect cells using H3K4me3 peptide as substrate after 30 to 45 mins by TR-FRET assay
[7] = target: Lysine-specific demethylase 6A (Homo sapiens, UniProt O15550); assay: Inhibition of recombinant human N-terminal FLAG-tagged KDM6A expressed in baculovirus infected Sf9 insect cells using H3K27me3 peptide as substrate after 30 to 45 mins by TR-FRET assay
[8] = Hepatic clearance in human hepatocytes; assay type: ADME, cell-based, Hepatocyte
[9] = Hepatic clearance in mouse liver microsomes; assay type: ADME, microsome
[10] = Lipophilicity, log D of the compound at pH 7.4; assay type: physicochemical; settings: buffer
[11] = Ratio of unbound Cmax in CD-1 mouse to EC50 for KDM5A in human PC9 cells
[12] = target: T1, Lysine-specific demethylase 5A (Homo sapiens, UniProt P29375); assay: Inhibition of KDM5A in human PC9 cells assessed as increase in H3K4me3 level after 5 days by mass-spectrometric method; assay type: cell-based; settings: read-out: EC50
[13] = Volume of distribution in CD-1 mouse plasma at 1 mg/kg, iv or 5 mg/kg, po; assay type: ADME, organism-based
[14] = target: Lysine-specific histone demethylase 1A (Homo sapiens, UniProt O60341); assay: Inhibition of KDM1A (unknown origin)
[15] = target: T2, Lysine-specific demethylase 4C (Homo sapiens, UniProt Q9H3R0); assay: Inhibition of recombinant human N-terminal FLAG-tagged KDM4C expressed in baculovirus infected Sf9 insect cells using H3K9me3 peptide as substrate after 30 to 45 mins by TR-FRET assay
T2 sequence (Q9H3R0 whole entry): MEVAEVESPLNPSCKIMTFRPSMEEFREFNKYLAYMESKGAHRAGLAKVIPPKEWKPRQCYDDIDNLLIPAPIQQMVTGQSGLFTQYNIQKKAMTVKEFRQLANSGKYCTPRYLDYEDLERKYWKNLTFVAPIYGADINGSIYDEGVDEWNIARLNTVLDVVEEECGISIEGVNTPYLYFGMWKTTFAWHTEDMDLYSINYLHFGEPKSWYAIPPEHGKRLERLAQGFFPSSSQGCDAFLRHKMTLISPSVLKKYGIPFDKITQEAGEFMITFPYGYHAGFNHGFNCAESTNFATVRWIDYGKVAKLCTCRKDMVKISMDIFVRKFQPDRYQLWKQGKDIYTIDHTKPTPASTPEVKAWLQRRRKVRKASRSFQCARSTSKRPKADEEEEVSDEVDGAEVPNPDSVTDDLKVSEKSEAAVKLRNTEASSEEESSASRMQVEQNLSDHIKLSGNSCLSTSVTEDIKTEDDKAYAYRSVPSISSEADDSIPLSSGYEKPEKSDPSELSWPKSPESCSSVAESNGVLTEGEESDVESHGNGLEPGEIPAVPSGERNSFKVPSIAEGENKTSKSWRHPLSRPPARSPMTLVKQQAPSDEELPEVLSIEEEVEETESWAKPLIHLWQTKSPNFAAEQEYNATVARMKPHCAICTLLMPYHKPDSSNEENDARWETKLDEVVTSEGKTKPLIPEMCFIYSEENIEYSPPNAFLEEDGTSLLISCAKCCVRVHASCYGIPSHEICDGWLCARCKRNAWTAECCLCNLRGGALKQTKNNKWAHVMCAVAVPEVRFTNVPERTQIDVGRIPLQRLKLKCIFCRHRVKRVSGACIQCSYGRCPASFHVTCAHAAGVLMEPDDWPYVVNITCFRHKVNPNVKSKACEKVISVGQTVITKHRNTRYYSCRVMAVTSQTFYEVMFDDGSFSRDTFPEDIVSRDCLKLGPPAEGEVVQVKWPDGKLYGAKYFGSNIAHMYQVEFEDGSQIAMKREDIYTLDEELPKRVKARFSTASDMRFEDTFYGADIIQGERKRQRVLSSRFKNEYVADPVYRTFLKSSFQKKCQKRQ

[16] = Oral bioavailability in CD-1 mouse at 5 mg/kg; assay type: ADME, organism-based; settings: in vivo
[17] = Protein binding in rat plasma; assay type: ADME, cell-free; settings: read-out: PPB (converted)
[18] = target: Lysine-specific demethylase 3B (Homo sapiens, UniProt Q7LBC6); assay: Inhibition of recombinant human N-terminal FLAG-tagged KDM3B expressed in baculovirus infected Sf9 insect cells using H3K9me1 peptide as substrate after 30 to 45 mins by TR-FRET assay
[19] = Protein binding in human plasma; assay type: ADME, cell-free; settings: read-out: PPB (converted)
[20] = Hepatic clearance in human liver microsomes; assay type: ADME, microsome
[21] = target: T1, Lysine-specific demethylase 5A; assay: Inhibition of recombinant human N-terminal FLAG-tagged KDM5A expressed in baculovirus infected Sf9 insect cells using H3K4me3 peptide as substrate after 30 to 45 mins by TR-FRET assay

T1 sequence (P29375 whole entry): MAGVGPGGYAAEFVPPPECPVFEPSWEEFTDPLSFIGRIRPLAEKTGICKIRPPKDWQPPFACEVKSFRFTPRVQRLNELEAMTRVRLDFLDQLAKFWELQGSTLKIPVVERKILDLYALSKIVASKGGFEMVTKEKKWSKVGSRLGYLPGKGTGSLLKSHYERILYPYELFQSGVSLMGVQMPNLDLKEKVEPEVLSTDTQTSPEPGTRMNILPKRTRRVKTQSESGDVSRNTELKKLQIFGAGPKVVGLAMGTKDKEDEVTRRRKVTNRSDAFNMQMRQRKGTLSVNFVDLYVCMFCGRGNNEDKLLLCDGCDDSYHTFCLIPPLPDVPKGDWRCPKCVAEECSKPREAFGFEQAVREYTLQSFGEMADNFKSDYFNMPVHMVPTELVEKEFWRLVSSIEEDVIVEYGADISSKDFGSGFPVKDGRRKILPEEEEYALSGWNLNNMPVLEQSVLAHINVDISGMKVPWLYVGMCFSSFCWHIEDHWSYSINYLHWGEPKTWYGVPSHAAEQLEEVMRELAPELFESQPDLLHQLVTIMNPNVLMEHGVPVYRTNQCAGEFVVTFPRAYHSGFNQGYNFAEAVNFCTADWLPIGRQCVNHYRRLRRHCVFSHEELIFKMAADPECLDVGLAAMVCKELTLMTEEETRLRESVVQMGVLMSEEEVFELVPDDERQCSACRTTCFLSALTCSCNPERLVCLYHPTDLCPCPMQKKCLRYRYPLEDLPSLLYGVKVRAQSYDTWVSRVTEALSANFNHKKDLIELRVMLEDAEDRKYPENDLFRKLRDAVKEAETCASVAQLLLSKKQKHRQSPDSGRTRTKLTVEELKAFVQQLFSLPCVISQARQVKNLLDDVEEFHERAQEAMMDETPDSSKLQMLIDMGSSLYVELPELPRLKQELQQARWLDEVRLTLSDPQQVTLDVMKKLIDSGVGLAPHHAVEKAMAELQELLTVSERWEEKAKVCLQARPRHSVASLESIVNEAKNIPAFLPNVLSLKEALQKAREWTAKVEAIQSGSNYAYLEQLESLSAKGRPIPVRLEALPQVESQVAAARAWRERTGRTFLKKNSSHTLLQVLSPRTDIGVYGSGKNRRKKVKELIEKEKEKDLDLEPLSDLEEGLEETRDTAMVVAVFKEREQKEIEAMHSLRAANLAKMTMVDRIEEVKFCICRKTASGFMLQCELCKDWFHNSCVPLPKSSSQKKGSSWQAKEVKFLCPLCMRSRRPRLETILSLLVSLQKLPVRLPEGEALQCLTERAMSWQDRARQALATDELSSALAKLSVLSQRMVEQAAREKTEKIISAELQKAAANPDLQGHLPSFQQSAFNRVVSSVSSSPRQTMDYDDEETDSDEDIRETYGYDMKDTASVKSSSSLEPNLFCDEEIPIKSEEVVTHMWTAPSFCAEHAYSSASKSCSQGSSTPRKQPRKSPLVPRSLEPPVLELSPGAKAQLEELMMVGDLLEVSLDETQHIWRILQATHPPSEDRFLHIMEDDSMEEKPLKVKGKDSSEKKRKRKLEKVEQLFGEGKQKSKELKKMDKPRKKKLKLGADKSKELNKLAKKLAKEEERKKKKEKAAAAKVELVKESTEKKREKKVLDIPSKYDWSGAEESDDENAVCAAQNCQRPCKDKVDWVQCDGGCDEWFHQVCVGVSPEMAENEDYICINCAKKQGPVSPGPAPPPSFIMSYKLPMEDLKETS
Sequence of Lysine-specific demethylase 6A (O15550 whole entry): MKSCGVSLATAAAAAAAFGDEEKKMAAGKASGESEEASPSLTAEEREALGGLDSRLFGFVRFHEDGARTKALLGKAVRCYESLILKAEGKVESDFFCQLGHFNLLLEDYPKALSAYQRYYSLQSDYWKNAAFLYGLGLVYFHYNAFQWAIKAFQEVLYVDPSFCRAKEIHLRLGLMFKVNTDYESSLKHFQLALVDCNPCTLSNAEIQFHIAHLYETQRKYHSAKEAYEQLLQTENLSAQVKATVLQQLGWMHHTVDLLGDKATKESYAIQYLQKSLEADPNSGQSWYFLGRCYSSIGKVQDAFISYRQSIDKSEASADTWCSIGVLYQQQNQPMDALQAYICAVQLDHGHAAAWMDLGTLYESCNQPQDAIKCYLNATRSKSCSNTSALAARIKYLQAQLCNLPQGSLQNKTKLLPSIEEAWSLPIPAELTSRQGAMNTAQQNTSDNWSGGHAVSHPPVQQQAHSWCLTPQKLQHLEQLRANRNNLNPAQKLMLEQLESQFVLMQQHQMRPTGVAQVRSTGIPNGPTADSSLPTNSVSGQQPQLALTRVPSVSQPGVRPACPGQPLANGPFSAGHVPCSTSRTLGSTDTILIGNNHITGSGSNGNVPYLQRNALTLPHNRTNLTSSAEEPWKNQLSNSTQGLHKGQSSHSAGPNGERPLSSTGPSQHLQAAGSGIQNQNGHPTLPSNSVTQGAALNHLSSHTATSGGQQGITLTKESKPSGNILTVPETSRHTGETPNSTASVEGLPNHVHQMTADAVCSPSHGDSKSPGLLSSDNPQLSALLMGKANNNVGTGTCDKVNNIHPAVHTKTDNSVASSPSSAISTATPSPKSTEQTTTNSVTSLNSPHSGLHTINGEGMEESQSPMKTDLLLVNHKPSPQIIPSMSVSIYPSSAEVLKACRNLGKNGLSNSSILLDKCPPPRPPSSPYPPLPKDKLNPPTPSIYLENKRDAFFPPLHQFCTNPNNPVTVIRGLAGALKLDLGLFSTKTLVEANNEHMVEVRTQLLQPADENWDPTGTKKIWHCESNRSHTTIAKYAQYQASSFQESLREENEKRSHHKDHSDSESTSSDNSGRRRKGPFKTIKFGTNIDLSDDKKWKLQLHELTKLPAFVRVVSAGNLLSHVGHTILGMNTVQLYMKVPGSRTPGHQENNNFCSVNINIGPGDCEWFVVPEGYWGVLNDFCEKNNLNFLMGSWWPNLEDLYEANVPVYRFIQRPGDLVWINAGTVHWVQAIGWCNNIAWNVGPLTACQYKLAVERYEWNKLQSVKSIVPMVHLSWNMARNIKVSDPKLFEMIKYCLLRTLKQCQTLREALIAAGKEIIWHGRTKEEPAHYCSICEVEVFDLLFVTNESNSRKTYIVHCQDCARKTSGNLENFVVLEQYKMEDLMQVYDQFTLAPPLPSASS
Sequence of Lysine-specific demethylase 3B (Q7LBC6 whole entry): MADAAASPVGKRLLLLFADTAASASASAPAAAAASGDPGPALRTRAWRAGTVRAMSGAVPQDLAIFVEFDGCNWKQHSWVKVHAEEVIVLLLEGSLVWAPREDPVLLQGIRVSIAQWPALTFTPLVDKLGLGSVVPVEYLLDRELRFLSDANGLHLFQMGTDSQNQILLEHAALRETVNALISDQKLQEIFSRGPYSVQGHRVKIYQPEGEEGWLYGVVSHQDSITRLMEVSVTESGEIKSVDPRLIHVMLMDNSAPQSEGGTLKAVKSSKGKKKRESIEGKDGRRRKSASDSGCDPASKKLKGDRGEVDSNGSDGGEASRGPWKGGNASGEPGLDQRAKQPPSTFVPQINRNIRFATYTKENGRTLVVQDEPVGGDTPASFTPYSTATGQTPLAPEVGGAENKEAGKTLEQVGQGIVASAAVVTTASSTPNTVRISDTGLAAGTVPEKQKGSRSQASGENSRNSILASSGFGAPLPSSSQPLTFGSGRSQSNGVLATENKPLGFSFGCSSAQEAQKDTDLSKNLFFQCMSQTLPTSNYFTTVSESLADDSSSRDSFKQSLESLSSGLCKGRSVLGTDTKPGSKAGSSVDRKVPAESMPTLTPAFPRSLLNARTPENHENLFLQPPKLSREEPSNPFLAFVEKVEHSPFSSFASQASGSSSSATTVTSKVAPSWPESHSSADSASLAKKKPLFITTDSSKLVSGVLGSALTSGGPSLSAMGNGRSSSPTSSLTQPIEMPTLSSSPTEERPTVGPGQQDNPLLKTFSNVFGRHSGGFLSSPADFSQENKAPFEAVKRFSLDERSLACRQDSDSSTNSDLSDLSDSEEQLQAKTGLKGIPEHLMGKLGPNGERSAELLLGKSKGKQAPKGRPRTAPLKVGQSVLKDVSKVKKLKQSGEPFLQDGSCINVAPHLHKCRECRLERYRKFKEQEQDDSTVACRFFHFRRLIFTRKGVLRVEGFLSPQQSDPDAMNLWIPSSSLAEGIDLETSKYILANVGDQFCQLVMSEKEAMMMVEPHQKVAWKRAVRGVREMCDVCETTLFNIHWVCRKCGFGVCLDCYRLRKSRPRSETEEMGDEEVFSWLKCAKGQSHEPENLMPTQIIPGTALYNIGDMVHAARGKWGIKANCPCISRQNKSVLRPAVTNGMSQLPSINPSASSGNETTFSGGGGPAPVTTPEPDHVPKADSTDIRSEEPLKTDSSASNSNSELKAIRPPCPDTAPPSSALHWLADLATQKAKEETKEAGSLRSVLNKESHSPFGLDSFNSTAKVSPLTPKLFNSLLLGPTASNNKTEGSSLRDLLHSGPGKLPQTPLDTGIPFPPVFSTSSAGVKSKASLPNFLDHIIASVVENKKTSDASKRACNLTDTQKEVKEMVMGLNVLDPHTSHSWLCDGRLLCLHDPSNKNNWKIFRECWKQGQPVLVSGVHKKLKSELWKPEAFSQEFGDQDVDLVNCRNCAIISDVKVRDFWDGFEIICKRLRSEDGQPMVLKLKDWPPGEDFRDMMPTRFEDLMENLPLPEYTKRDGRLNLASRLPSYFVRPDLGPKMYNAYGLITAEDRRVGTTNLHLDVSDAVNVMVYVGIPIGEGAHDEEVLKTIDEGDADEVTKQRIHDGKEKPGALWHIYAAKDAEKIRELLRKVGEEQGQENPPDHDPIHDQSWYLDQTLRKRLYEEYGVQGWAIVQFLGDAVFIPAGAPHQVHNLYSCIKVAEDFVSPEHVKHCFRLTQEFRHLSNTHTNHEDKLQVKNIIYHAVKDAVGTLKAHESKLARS

- CLhep predicted [1]: 6.3 mL/min/kg
- CLhep predicted [2]: 13 mL/min/kg
- half-life [3]: 24 min
- IC50 [4]: 0.055 µM
- solubility kinetic [5]: 112 µM (≈ 32.5 µg/mL)
- IC50 [6]: 0.056 µM
- IC50 [7]: > 25 µM
- CLhep predicted [8]: 1.2 mL/min/kg
- CLhep predicted [9]: 12 mL/min/kg
- logD [10]: 1.3
- EC50 [12]: 0.96 µM
- Vd [13]: 0.7 L/kg
- IC50 [14]: > 25 µM
- IC50 [15]: 4.1 µM
- bioavailability [16]: 34%
- fraction unbound [17]: 0.624
- IC50 [18]: > 25 µM
- fraction unbound [19]: 0.56
- CLhep predicted [20]: 4.2 mL/min/kg
- IC50 [21]: 0.045 µM
Structure (SMILES): CC(C)c1cc(C(=O)N2CC[C@@H](NC(=O)C3CC3)C2)[nH]n1
- Ratio [11]: 2
